# Assay results reported in patent US8309552B2, “Immunomodulating heterocyclic compounds” (Medigene AG, priority 2003, dated 2012).
# Target: T1, CD80-CD28 interaction (Homo sapiens, UniProt P33681)
# T1 sequence (P33681 35-242 limits assumed): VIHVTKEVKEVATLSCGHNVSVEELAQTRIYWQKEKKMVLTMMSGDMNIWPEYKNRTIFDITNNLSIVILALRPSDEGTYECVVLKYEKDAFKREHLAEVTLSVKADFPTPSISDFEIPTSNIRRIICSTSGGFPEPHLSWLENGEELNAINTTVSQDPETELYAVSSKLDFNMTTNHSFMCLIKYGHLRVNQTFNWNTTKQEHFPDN
# Test: Homogenous Time Resolved Fluorescence (HTRF) assay, cell free
# Type: binding
# Conditions: cell free HTRF assay; concentration series 100 μM-1.7 nM; 4 hours at room temperature; read-out: Activity (EC50 in the HTRF assay)
# Summary of the method: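 Europium and APC labels were linked through antibodies to CD28 and CD80 fusion proteins. Compounds were tested at 100 μM-1.7 nM for 4 h at room temperature in 50 mM Tris-HCl, 150 mM NaCl pH7.8, 0.1% BSA. Emission read at 665 and 615 nm (excitation 340 nm); non-specific signal measured with C215 Fab in place of CD80; EC50 reported in bands.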
row,Compound,EC50 [µM]
1,CC(C)(C)NC(=O)c1ccc(-n2[nH]c3c(nnc4c(F)cccc43)c2=O)cc1 [Example 375],< 1
2,O=C(NC1CCCC1)c1ccc(-n2[nH]c3c(nnc4c(F)cccc43)c2=O)cc1 [Example 425],< 1
3,O=C(NC1CN2CCC1CC2)c1ccc(-n2[nH]c3c(nnc4cccc(F)c43)c2=O)cc1 (stereo not drawn) [Example 401],< 1
4,CC(Cc1c[nH]c2ccccc12)NC(=O)c1ccc(-n2[nH]c3c(nnc4c(F)cccc43)c2=O)cc1 (stereo not drawn) [Example 359],< 1
5,O=C(NCCc1cccc(F)c1)c1ccc(-n2[nH]c3c(nnc4c(F)cccc43)c2=O)cc1 [Example 373],1 to 10
6,O=C(NCCCN1CCCC1)c1ccc(-n2[nH]c3c(nnc4ccc(F)cc43)c2=O)cc1 [Example 331],< 1
7,CC(C)(C)NC(=O)c1ccc(-n2[nH]c3c(nnc4cccc(F)c43)c2=O)cc1 [Example 400],< 1
8,O=C(NCCCN1CCCC1)c1ccc(-n2[nH]c3c(nnc4c(F)cccc43)c2=O)cc1 [Example 352],< 1
9,O=C(NCCCCN1CCOCC1)c1ccc(-n2[nH]c3c(nnc4ccccc43)c2=O)cc1 [Example 338],< 1
10,Cc1ccc2nnc3c(=O)n(-c4ccc(C(=O)NCCCCN5CCCC5)cc4)[nH]c3c2c1 [Example 409],< 1
11,C=CCN(C)CCCCNC(=O)c1ccc(-n2[nH]c3c(nnc4c(F)cccc43)c2=O)cc1 [Example 435],< 1
12,C=CCNC(=O)c1ccc(-n2[nH]c3c(nnc4c(F)cccc43)c2=O)cc1 [Example 377],< 1
13,CN1CCCC1CCNC(=O)c1ccc(-n2[nH]c3c(nnc4ccc(F)cc43)c2=O)cc1 (stereo not drawn) [Example 327],< 1
14,O=C(NCCCN1CCCC1)c1ccc(-n2[nH]c3c(nnc4cccc(F)c43)c2=O)cc1 [Example 393],< 1
15,NCCCCCCNC(=O)c1ccc(-n2[nH]c3c(nnc4ccccc43)c2=O)cc1 [Example 271],< 1
16,CNCCNC(=O)c1ccc(-n2[nH]c3c(nnc4c(F)cccc43)c2=O)cc1 [Example 356],< 1
17,O=C(NC1CCc2ccccc21)c1ccc(-n2[nH]c3c(nnc4ccccc43)c2=O)cc1 (stereo not drawn) [Example 252],> 10
18,O=C(NCCCCN1CCCC1)c1ccc(-n2[nH]c3c(nnc4ccc(F)cc43)c2=O)cc1 [Example 325],< 1
19,O=C(NC1CC1c1ccccc1)c1ccc(-n2[nH]c3c(nnc4ccccc43)c2=O)cc1 (stereo not drawn) [Example 315],1 to 10
20,CN1CCCC1CCNC(=O)c1ccc(-n2[nH]c3c(nnc4c(F)cccc43)c2=O)cc1 (stereo not drawn) [Example 343],< 1
21,CNCCCNC(=O)c1ccc(-n2[nH]c3c(nnc4cccc(F)c43)c2=O)cc1 [Example 396],< 1

# Continued, values first:
row,EC50 [µM],Compound
1,> 10,C[Si](C)(C)CNC(=O)c1ccc(-n2[nH]c3c(nnc4ccccc43)c2=O)cc1 [Example 320]
2,< 1,C#CC1(NC(=O)c2ccc(-n3[nH]c4c(nnc5ccccc54)c3=O)cc2)CCCCC1 [Example 314]
3,1 to 10,CCCCNC(=O)c1ccc(-n2[nH]c3c(nnc4ccccc43)c2=O)cc1 [Example 241]
4,< 1,O=C(NCCCCN1CCCC1)Nc1ccc(-n2[nH]c3c(nnc4ccccc43)c2=O)cc1 [Example 228]
5,< 1,CC1(C)CC(NC(=O)Nc2ccc(-n3[nH]c4c(nnc5ccccc54)c3=O)cc2)CC(C)(C)N1 [Example 301]
6,1 to 10,CC1CCCC(NC(=O)c2ccc(-n3[nH]c4c(nnc5ccccc54)c3=O)cc2)C1C (stereo not drawn) [Example 317]
7,< 1,O=C(NCCc1cnc[nH]1)Nc1ccc(-n2[nH]c3c(nnc4ccccc43)c2=O)cc1 [Example 285]
8,1 to 10,O=C(NC1CCOC1=O)c1ccc(-n2[nH]c3c(nnc4ccccc43)c2=O)cc1 (stereo not drawn) [Example 277]
9,1 to 10,CCC(C)NC(=O)Nc1ccc(-n2[nH]c3c(nnc4ccccc43)c2=O)cc1 (stereo not drawn) [Example 309]
10,< 1,COC(CNC(=O)Nc1ccc(-n2[nH]c3c(nnc4ccccc43)c2=O)cc1)OC [Example 306]
11,> 10,CN(CCNC(=O)Nc1ccc(-n2[nH]c3c(nnc4ccccc43)c2=O)cc1)C(=O)OC(C)(C)C [Example 265]
12,> 10,CCCNCCNC(=O)c1ccc(-n2[nH]c3c(nnc4ccccc43)c2=O)cc1 [Example 269]

# Same assay, conditions: cell-free HTRF, compound concentration series 100 μM-1.7 nM, 4 hours at room temperature; read-out: Activity (EC50 in the HTRF assay)
row,Compound,EC50 [µM]
1,CC(C)(C)OC(=O)NCCCCNC(=O)c1ccc(-n2[nH]c3c(nnc4ccccc43)c2=O)cc1 [Example 91],< 1
2,CC(C)(C)OC(=O)NCCNC(=O)c1ccc(-n2[nH]c3c(nnc4ccccc43)c2=O)cc1 [Example 17],1 to 10
3,CCOC(=O)CC(C)NC(=O)c1ccc(-n2[nH]c3c(nnc4ccccc43)c2=O)cc1 (stereo not drawn) [Example 34],1 to 10
4,O=C(NC1CCCN(Cc2ccccc2)C1)c1ccc(-n2[nH]c3c(nnc4ccccc43)c2=O)cc1 (stereo not drawn) [Example 80],< 1
5,CC(C)C(C)NC(=O)c1ccc(-n2[nH]c3c(nnc4ccccc43)c2=O)cc1 (stereo not drawn) [Example 89],< 1
6,CC1(C)CC(NC(=O)c2ccc(-n3[nH]c4c(nnc5ccccc54)c3=O)cc2)CC(C)(C)N1 [Example 103],< 1
7,O=C(NCCN1CCNC1=O)c1ccc(-n2[nH]c3c(nnc4ccccc43)c2=O)cc1 [Example 36],> 10
8,O=C(NCCCn1ccnc1)c1ccc(-n2[nH]c3c(nnc4ccccc43)c2=O)cc1 [Example 23],< 1
9,CCOC(CNC(=O)c1ccc(-n2[nH]c3c(nnc4ccccc43)c2=O)cc1)OCC [Example 45],1 to 10
10,CC1C(NC(=O)c2ccc(-n3[nH]c4c(nnc5ccccc54)c3=O)cc2)CC2CC1C2(C)C (stereo not drawn) [Example 122],> 10

# The remaining lines, values ahead:
row,EC50 [µM],Compound
1,1 to 10,O=C(NCCN1CCNCC1)c1ccc(-n2[nH]c3c(nnc4ccccc43)c2=O)cc1 [Example 102]
2,1 to 10,O=C(NC1CCCC1)c1ccc(-n2[nH]c3c(nnc4ccccc43)c2=O)cc1 [Example 83]
3,< 1,CCN(CC)CCCC(C)NC(=O)Nc1ccc(-n2[nH]c3c(nnc4ccccc43)c2=O)cc1 (stereo not drawn) [Example 168]
4,< 1,CN(C)CCNC(=O)c1ccc(-n2[nH]c3c(nnc4ccccc43)c2=O)cc1 [Example 11]
5,> 10,CCOC(=O)C1CCCC1NC(=O)Nc1ccc(-n2[nH]c3c(nnc4ccccc43)c2=O)cc1 (stereo not drawn) [Example 164]
6,> 10,O=C(NCC1CCCCCC1)Nc1ccc(-n2[nH]c3c(nnc4ccccc43)c2=O)cc1 [Example 204]
7,> 10,O=C(Nc1ccc(-n2[nH]c3c(nnc4ccccc43)c2=O)cc1)NC1CC2CCC1C2 (stereo not drawn) [Example 199]
8,> 10,CC(C)CCC(C)NC(=O)Nc1ccc(-n2[nH]c3c(nnc4ccccc43)c2=O)cc1 (stereo not drawn) [Example 218]
9,> 10,O=C(NCc1ccc(F)cc1)Nc1ccc(-n2[nH]c3c(nnc4ccccc43)c2=O)cc1 [Example 126]
10,< 1,O=C(NCCCO)Nc1ccc(-n2[nH]c3c(nnc4ccccc43)c2=O)cc1 [Example 150]
11,< 1,O=C(NCCNCCO)c1ccc(-n2[nH]c3c(nnc4ccccc43)c2=O)cc1 [Example 109]
12,> 10,CC(C)(C)OC(=O)CNC(=O)Nc1ccc(-n2[nH]c3c(nnc4ccccc43)c2=O)cc1 [Example 205]
13,< 1,O=C(Nc1ccc(-n2[nH]c3c(nnc4ccccc43)c2=O)cc1)NC1CCN(Cc2ccccc2)C1 (stereo not drawn) [Example 214]
14,1 to 10,CN1C(C)(C)CC(NC(=O)Nc2ccc(-n3[nH]c4c(nnc5ccccc54)c3=O)cc2)CC1(C)C [Example 135]
15,1 to 10,CCOC(=O)CCNC(=O)Nc1ccc(-n2[nH]c3c(nnc4ccccc43)c2=O)cc1 [Example 156]
16,< 1,O=C(NCCCN1CCOCC1)c1ccc(-n2[nH]c3c(nnc4ccccc43)c2=O)cc1 [Example 13]
17,< 1,CCNCCNC(=O)c1ccc(-n2[nH]c3c(nnc4ccccc43)c2=O)cc1 [Example 49]
18,> 10,O=C(NCCCCc1ccccc1)Nc1ccc(-n2[nH]c3c(nnc4ccccc43)c2=O)cc1 [Example 188]
19,1 to 10,CC(C)C(C)NC(=O)Nc1ccc(-n2[nH]c3c(nnc4ccccc43)c2=O)cc1 (stereo not drawn) [Example 173]
20,1 to 10,O=C(Nc1ccc(-n2[nH]c3c(nnc4ccccc43)c2=O)cc1)NC1CCOC1=O (stereo not drawn) [Example 166]
21,< 1,CNCCCNC(=O)c1ccc(-n2[nH]c3c(nnc4ccccc43)c2=O)cc1 [Example 52]
22,> 10,CC(C)(C)OC(=O)NCCCCNC(=O)Nc1ccc(-n2[nH]c3c(nnc4ccccc43)c2=O)cc1 [Example 220]
23,1 to 10,CCC(C)NC(=O)Nc1ccc(-n2[nH]c3c(nnc4ccccc43)c2=O)cc1 (stereo not drawn) [Example 167]
24,< 1,CN(C)CCNC(=O)Nc1ccc(-n2[nH]c3c(nnc4ccccc43)c2=O)cc1 [Example 130]

# Same assay, conditions: cell-free HTRF, concentration series 100 μM-1.7 nM, 4 hours at room temperature; read-out: Activity (EC50 in the HTRF assay)
row,EC50 [µM],Compound
1,< 1,CC1(C)CCCC(C)(C)N1CCCCNC(=O)c1ccc(-n2[nH]c3c(nnc4c(F)cccc43)c2=O)cc1 [Example 466]
2,< 1,C=CCCN1CCC(NC(=O)c2ccc(-n3[nH]c4c(nnc5c(F)cccc54)c3=O)cc2)CC1 [Example 483]
3,1 to 10,O=C(NC(CO)Cc1c[nH]c2ccccc12)c1ccc(-n2[nH]c3c(nnc4c(F)cccc43)c2=O)cc1 (stereo not drawn) [Example 515]
4,< 1,O=C(NC(CO)CO)c1ccc(-n2[nH]c3c(nnc4c(F)cccc43)c2=O)cc1 [Example 507]
5,< 1,CC(C)(C)CNCCCCNC(=O)c1ccc(-n2[nH]c3c(nnc4c(F)cccc43)c2=O)cc1 [Example 481]
